Reference: patent US8722670B2, “Selective NR2B antagonists” (Bristol-Myers Squibb Company, priority 2011, dated 2014)
Where two headings read alike, the source gives them in different places.

Key:
hNR2B [1] = molecular target: T1, hNR2B (Homo sapiens, UniProt Q13224); assay: Electrophysiology NMDA receptor experiments: two electrode voltage-clamp in Xenopus laevis oocytes, hNR2B IC50; format: cell-based; conditions: hNR2B activity class, 50 μM glutamate, 30 μM glycine
T1 construct: expressed in transfected cells; host or cells: Xenopus laevis oocytes, cRNA-injected
T1 sequence (Q13224 27-1484, other chains not shown): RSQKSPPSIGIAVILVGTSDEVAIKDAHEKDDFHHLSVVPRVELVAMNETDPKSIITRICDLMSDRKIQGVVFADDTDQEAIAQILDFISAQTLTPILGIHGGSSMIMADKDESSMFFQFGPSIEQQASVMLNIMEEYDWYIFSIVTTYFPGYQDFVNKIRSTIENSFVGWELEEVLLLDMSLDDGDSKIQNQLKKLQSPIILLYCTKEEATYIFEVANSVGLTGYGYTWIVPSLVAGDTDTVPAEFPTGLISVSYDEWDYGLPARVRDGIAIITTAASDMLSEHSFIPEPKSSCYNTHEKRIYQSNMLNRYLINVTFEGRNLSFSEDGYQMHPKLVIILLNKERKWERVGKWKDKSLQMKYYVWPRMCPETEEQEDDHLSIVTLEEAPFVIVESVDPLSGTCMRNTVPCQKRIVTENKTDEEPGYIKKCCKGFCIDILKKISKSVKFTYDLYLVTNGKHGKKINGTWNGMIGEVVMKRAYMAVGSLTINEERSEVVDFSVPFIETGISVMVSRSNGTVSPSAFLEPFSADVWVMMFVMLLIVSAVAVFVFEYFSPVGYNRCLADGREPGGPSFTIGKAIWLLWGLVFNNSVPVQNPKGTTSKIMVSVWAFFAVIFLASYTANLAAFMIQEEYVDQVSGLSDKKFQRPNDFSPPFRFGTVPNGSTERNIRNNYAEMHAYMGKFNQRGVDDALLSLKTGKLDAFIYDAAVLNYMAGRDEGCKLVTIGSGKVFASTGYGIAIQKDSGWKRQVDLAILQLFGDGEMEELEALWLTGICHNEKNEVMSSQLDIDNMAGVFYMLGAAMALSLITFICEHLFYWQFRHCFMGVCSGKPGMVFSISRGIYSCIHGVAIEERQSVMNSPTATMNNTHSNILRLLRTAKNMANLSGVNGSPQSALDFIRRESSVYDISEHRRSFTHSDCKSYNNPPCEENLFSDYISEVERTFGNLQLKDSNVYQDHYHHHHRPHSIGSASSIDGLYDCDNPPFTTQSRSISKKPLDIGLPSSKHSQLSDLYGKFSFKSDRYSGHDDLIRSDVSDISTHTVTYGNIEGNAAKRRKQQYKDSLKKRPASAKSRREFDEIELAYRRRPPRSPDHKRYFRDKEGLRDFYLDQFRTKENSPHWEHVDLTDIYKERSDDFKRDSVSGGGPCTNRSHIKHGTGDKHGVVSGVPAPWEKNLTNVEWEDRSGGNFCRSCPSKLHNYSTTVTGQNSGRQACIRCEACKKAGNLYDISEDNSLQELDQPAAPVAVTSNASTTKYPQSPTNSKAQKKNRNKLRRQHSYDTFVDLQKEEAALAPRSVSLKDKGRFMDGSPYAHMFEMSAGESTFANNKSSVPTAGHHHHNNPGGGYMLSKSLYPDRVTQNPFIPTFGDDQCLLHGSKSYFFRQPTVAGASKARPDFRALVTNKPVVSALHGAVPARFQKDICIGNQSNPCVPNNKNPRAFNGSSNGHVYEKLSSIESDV

hNR2B [2] = molecular target: T2, hNR2B (Homo sapiens, UniProt Q05586+Q13224); assay: as above; format: cell-based; conditions: 50 μM glutamate, 30 μM glycine
T2 construct: expressed in transfected cells; host or cells: Xenopus laevis oocytes, cRNA-injected
T2 sequence (Q13224 27-1484, other chains not shown): as above

[3] = hNR2B activity class, read-out: Activity
[4] = voltage clamp -40 mV, read-out: hNR2B IC50

SMILES | IC50 (hNR2B [2]; [3]) | other results
CC(Oc1ccc2[nH]c(=O)ccc2c1)c1nnc(Nc2ccc(Cl)c(Cl)c2)o1 (single isomer, unassigned) [Example 110] |  | IC50 (hNR2B [1]): < 0.2 µM
O=C1COc2cc(OCc3nnc(Nc4ccc(OC(F)(F)F)cc4)o3)ccc2N1 [Example 126] | 0.201 to 1 µM | 
Cc1cc(Nc2cc(COc3ccc4[nH]c(=O)ccc4c3)on2)ccc1OC(F)F [Example 268] | < 0.2 µM | 
O=c1ccc2cc(OCc3nnc(NCc4ccc5c(c4)OCO5)o3)ccc2[nH]1 [Example 85] | 1 to 10 µM | 
O=C1CCc2cc(OCc3nnc(Nc4ccc(OC(F)(F)F)cc4)s3)ccc2N1 [Example 247] | < 0.2 µM | 
O=C1COc2cc(OCc3nnc(NCc4ccc(Cl)c(Cl)c4)o3)ccc2N1 [Example 127] | 0.201 to 1 µM | 
O=C1Nc2ccc(OCc3nnc(Nc4ccc(Cl)c(Cl)c4)o3)cc2CO1 [Example 111] | < 0.2 µM | 
O=c1ccc2cc(OCc3nnc(Nc4cccc(Cl)c4)o3)ccc2[nH]1 [Example 58] |  | IC50 (hNR2B [2]; [4]): 0.83 µM
O=c1cnc2cc(OCc3nnc(Nc4ccc(C(F)(F)F)cc4)o3)ccc2[nH]1 [Example 124] | 1 to 10 µM | 
COc1ccc(Nc2noc(COc3ccc4[nH]c(=O)ccc4c3)n2)cc1Cl [Example 167] |  | IC50 (hNR2B [2]; [4]): 0.3 µM
O=C1CCc2cc(OCc3nnc(Nc4ccc(Cl)c(Cl)c4)s3)ccc2N1 [Example 240] |  | IC50 (hNR2B [2]; [4]): 0.266 µM
O=C1CCc2cc(OCc3nnc(Nc4ccc(Cl)cn4)o3)ccc2N1 [Example 15] | > 10 µM | 
O=c1ccc2cc(OCc3nnc(Nc4c(Cl)cccc4Cl)o3)ccc2[nH]1 [Example 66] | > 10 µM | 
Cc1cc(Nc2noc(C3CC3c3ccc4[nH]c(=O)ccc4c3)n2)ccc1OC(F)F (centres unmarked) [Example 235, 6-(2-(3-((4-(difluoromethoxy)-3-methylphenyl)amino)-1,2,4-oxadiazol-5-yl)cyclopropyl)quinolin-2(1H)-one] |  | IC50 (hNR2B [2]; [4]): 0.044 µM
O=C1CCc2cc(OCc3nnc(NCc4ccc(Cl)c(Cl)c4)o3)ccc2N1 [Example 21] | < 0.2 µM | 
FC(F)Oc1ccc(Nc2noc(CCc3ccc4[nH]ncc4c3)n2)cc1 [Example 201] |  | IC50 (hNR2B [2]; [4]): 0.47 µM
Oc1ccc(CCc2nnc(NCc3ccc(Cl)c(Cl)c3)o2)cc1 [Example 128, 4-(2-(5-(3,4-dichlorobenzylamino)-1,3,4-oxadiazol-2-yl)ethyl)phenol] |  | IC50 (hNR2B [2]; [4]): 0.061 µM
O=C1CCc2cc(OCc3nnc(Cc4ccc(Cl)c(Cl)c4)[nH]3)ccc2N1 [Example 284, 6-((5-(3,4-dichlorobenzyl)-4H-1,2,4-triazol-3-yl)methoxy)-3,4-dihydroquinolin-2(1H)-one] |  | IC50 (hNR2B [2]; [4]): 20 µM
O=c1ccc2cc(OCc3nnc(Nc4ccccc4Cl)o3)ccc2[nH]1 [Example 41] | > 10 µM | 
O=c1ccc2cc(OCc3nnc(Nc4cccc(Oc5ccccc5)c4)o3)ccc2[nH]1 [Example 89] | 0.201 to 1 µM | 
CCn1c(COc2ccc3[nH]c(=O)ccc3c2)nnc1Nc1ccc(OC(F)F)cc1 [Example 281] | < 0.2 µM | 
O=c1ccc2cc(OCc3nnc(Nc4ccc(Cl)c(C(F)(F)F)c4)o3)ccc2[nH]1 [Example 51] | < 0.2 µM | 
O=C1CCc2cc(OCc3nnc(Nc4ccc(Br)cc4)o3)ccc2N1 [Example 4] |  | IC50 (hNR2B [2]; [4]): 0.265 µM

Now from value to compound, other results behind:

IC50 (hNR2B [2]; [3]) | SMILES | other results
0.201 to 1 µM | O=c1ccc2cc(OCc3nnc(Nc4ccc(F)c(Cl)c4)o3)ccc2[nH]1 [Example 96] | 
> 10 µM | O=c1ccc2cc(OCc3nc(Nc4cccc(Cl)c4)no3)ccc2[nH]1 [Example 161] | 
0.201 to 1 µM | CCc1ccc(Nc2noc(CCc3ccc4[nH]ncc4c3)n2)cc1Cl [Example 212] | 
0.201 to 1 µM | Fc1ccc(Nc2noc(CCc3ccc4[nH]ncc4c3)n2)cc1C(F)F [Example 216] | 
< 0.2 µM | CCc1ccc(Nc2cc(COc3ccc4[nH]c(=O)ccc4c3)on2)cc1 [Example 265] | 
> 10 µM | O=c1ccc2cc(OCc3nc(Nc4ccc(F)cc4)no3)ccc2[nH]1 [Example 158] | 
> 10 µM | O=C1CCc2cc(CCc3nc(Nc4ccc(Cl)c(Cl)c4)no3)ccc2N1 [Example 199] | 
< 0.2 µM | O=c1ccc2cc(OCc3nc(Nc4ccc(OC(F)F)c(Cl)c4)no3)ccc2[nH]1 [Example 191] | 
1 to 10 µM | Oc1ccc(Cc2nnc(Nc3ccc(Cl)c(Cl)c3)o2)cc1 [Example 149] | 
> 10 µM | CCCc1ccc(Nc2cc(COc3ccc4[nH]c(=O)ccc4c3)on2)cc1 [Example 266] | 
< 0.2 µM | Cc1ccc(Nc2nnc(COc3ccc4[nH]c(=O)ccc4c3)o2)cc1Cl [Example 92] | 
> 10 µM | Fc1cc(Nc2noc(CCc3ccc4cn[nH]c4c3)n2)ccc1Cl [Example 227] | 
< 0.2 µM | Fc1cc(Nc2noc(CCc3cnc4[nH]ncc4c3)n2)ccc1OC(F)F [Example 233] | 
< 0.2 µM | O=c1ccc2cc(OCc3cc(Nc4ccc(Cl)c(F)c4)no3)ccc2[nH]1 [Example 256] | 
< 0.2 µM | CC(Oc1ccc2[nH]c(=O)ccc2c1)c1nnc(Nc2ccc(Cl)c(Cl)c2)o1 (single isomer, unassigned) [Example 109] | 
